TGI data for 15 compounds are collected here from PubChem BioAssay (NCI).

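How tested: cells in 96-well plates exposed to compound for 48 hours at five concentrations. Definition used: TGI = concentration required for complete inhibition of growth.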 Bounds are passed on as bounds.

Common to all, as to test: DTP human tumour cell line panel, 48 h
For experiment [1], the system named is ACHN renal.
Experiment [2] has as its system BT-549 breast.
The test system of experiment [3] is CAKI-1 renal.
Experiment [4] concerns HS 578T breast.
Experiment [5] relates to KM12 colon.
The test system of experiment [6] is M14 melanoma.
In experiment [7] the test system is MDA-N.
In experiment [8] the test system is NCI-H226 lung.
For experiment [9], the system named is NCI-H23 lung.
In experiment [10] the test system is OVCAR-3 ovarian.
Experiment [11] relates to OVCAR-5 ovarian.
Experiment [12] has as its system PC-3 prostate.
Experiment [13] concerns RXF 393 renal.
The subject of experiment [14] is SF-268 CNS.
Experiment [15] concerns SK-MEL-5 melanoma.
The test system of experiment [16] is SNB-19 CNS.
The subject of experiment [17] is SR leukemia.
Experiment [18] deals with SW-620 colon.
Experiment [19] relates to T-47D breast.

Regarding `CCOC(=O)CCC(NC(=O)Cc1ccc(Nc2nc3ccccc3nc2-c2cccs2)cc1)C(=O)OCC` (centres undefined), the TGI in [1], in [2], in experiment [3], in [4], in experiment [5] and in experiment [6] was above 100 µM in each case. Besides, the TGI in experiment [7], in experiment [8], in experiment [9], in [10], in experiment [11] and in [12] was above 100 µM in each case. In addition, the TGI (as a rule, the concentration giving total growth inhibition) in experiment [13] is 52.5 µM; in experiment [14], above 100 µM; in [15], above 100 µM; in experiment [16], above 100 µM; in [17], above 100 µM; in [18], above 100 µM. For the same compound, in [19], the TGI was 66.9 µM.
`COC(=O)/C(=N\NC(N)=O)C(C(=O)C(=O)Nc1ccccc1OC)c1nc2ccc([N+](=O)[O-])cc2[nH]c1=O` (centres undefined): the TGI in [1], in experiment [2], in [3], in [4], in [5] and in experiment [6] was above 100 µM each time. In addition, the TGI in experiment [7], in experiment [8], in experiment [9], in experiment [10], in experiment [11] and in [12] was above 100 µM each time. Further, the TGI in experiment [13], in experiment [14], in experiment [15], in experiment [16], in [17] and in experiment [18] was above 100 µM each time. The TGI in experiment [19] is above 100 µM.
Turning to `c1ccc2c(CN3CCN(Cc4c[nH]c5ccccc45)CC3)c[nH]c2c1`, the TGI in experiment [1] turned out to be 40.6 µM; in experiment [2] it was 58.6 µM; in [3], 69.4 µM; in [4], 36.2 µM; in experiment [5] it was 33.1 µM; in [6] it was 29.1 µM. In addition, the TGI turned out to be 29.1 µM in experiment [7]; 37.7 µM in [8]; 42.7 µM in experiment [9]; 35.6 µM in experiment [10]; 36.4 µM in experiment [11]; 43.7 µM in experiment [12]. Moreover, the TGI was found to be 28.8 µM in experiment [13]; 36 µM in experiment [14]; 29.1 µM in experiment [15]; 45.9 µM in experiment [16]; 44.8 µM in experiment [17]; 93.9 µM in [18]. Further, the TGI in experiment [19] was 39.1 µM.
Regarding `COC(=O)CCC(C)[C@H]1CCC2C3C(C[C@H](OC(C)=O)[C@@]21C)[C@@]1(C)CCC2(C[C@H]1C[C@H]3OC(C)=O)OOC1(CCCC1)OO2` (some centres undefined), the TGI was above 100 µM in experiment [1]; above 100 µM in [2]; 92 µM in experiment [3]; above 100 µM in experiment [4]; above 100 µM in experiment [5]; above 100 µM in [6]. Besides, the TGI in experiment [7], in [8], in [9], in experiment [10], in experiment [11] and in experiment [12] was above 100 µM throughout. Moreover, the TGI in experiment [13] was above 100 µM; in experiment [14], above 100 µM; in experiment [15], above 100 µM; in experiment [16] it was above 100 µM; in experiment [17] it was 15.4 µM; in experiment [18], above 100 µM. The compound also returned a TGI in experiment [19] of 75 µM.
Regarding `O=C(NC(=S)Nc1ccc2c(c1)Sc1ccccc1O2)c1ccc([N+](=O)[O-])cc1`, the TGI in experiment [1], in [2], in experiment [3], in experiment [4], in experiment [5] and in [6] was above 100 µM each time. The TGI in [7], in [8], in [9], in [10], in [11] and in experiment [12] was above 100 µM in each case. For the same compound, the TGI in experiment [13], in [14], in [15], in experiment [16], in experiment [17] and in experiment [18] was above 100 µM throughout. Further, in experiment [19], the TGI is above 100 µM.
With `C[Si](C)(C)C#Cc1cc(-c2nc3ccccc3s2)ccc1N`, the TGI in experiment [1] is 29.1 µM; in experiment [2] it was 33.1 µM; in experiment [3] it was 31 µM; in [4] it was 51 µM; in experiment [5], 34.2 µM; in experiment [6], 31 µM. Also, the TGI in experiment [7] turned out to be 33.7 µM; in experiment [8], 31.2 µM; in experiment [9], 40.6 µM; in experiment [10] it was 39.2 µM; in experiment [11], 33.5 µM; in [12], 34.2 µM. The TGI came out at 32.8 µM in [13]; 32.1 µM in experiment [14]; 29.4 µM in [15]; 34.6 µM in experiment [16]; 67.8 µM in experiment [17]; 35 µM in experiment [18]. In experiment [19], this compound gave a TGI above 100 µM.
On to `CC(=O)Nc1ccc(NS(=O)(=O)c2ccc3nc(C)n(NS(=O)(=O)c4ccc(NC(C)=O)cc4)c(=O)c3c2)cc1`, for which the TGI in experiment [1], in [2], in experiment [3], in experiment [4], in [5] and in [6] was above 100 µM each time. The TGI in experiment [7], in experiment [8], in experiment [9], in [10], in experiment [11] and in experiment [12] was above 100 µM each time. Moreover, the TGI in [13], in experiment [14], in experiment [15], in experiment [16], in [17] and in [18] was above 100 µM throughout. The same compound showed a TGI in experiment [19] above 100 µM.
`Cc1sc2[nH]c(=O)oc(=O)c2c1C`: the TGI in [1] was above 100 µM; in experiment [2], above 86.6 µM; in [3] it was above 100 µM; in experiment [4], above 71 µM; in [5], above 93.3 µM; in experiment [6] it was above 100 µM. In addition, the TGI in experiment [7], in [8], in experiment [9], in experiment [10], in experiment [11] and in experiment [12] was above 100 µM throughout. In addition, the TGI in [13], in experiment [14], in [15], in experiment [16], in experiment [17] and in experiment [18] was above 100 µM each time. Further, in experiment [19], the TGI was above 100 µM.
As to `Cn1c2ccccc2n2c3ncccc3c(=NCCCC(=O)O)c(C#N)c12`, the TGI in experiment [1], in [2], in experiment [3], in experiment [4], in experiment [5] and in experiment [6] was above 100 µM throughout. Also, the TGI in experiment [7], in [8], in [9], in [10], in experiment [11] and in experiment [12] was above 100 µM throughout. For the same compound, the TGI in [13], in [14], in experiment [15], in experiment [16], in experiment [17] and in [18] was above 100 µM throughout. The same compound had a TGI in experiment [19] above 100 µM.
Turning to `Oc1ccc2c(c1)CCc1c-2n(CCN2CCOCC2)c2ccc(O)cc12`, the TGI in experiment [1] was 53 µM; in [2], above 100 µM; in experiment [3] it was above 100 µM; in experiment [4], above 100 µM; in experiment [5], 52.9 µM; in experiment [6], above 100 µM. Moreover, the TGI was above 100 µM in experiment [7]; above 100 µM in experiment [8]; 90.3 µM in experiment [9]; above 100 µM in experiment [10]; above 100 µM in [11]; above 100 µM in experiment [12]. Further, the TGI in experiment [13] was above 100 µM; in [14], above 100 µM; in experiment [15], 39 µM; in experiment [16] it was above 100 µM; in [17], above 100 µM; in experiment [18], above 100 µM. In experiment [19], the TGI was above 100 µM.
As to `CN(C)CCCC1c2ccccc2Oc2ccc(C(F)(F)F)cc21` (centres undefined), the TGI in [1] came out at 30.4 µM; in [2], 28.2 µM; in experiment [3], 25.8 µM; in experiment [4], 31.8 µM; in experiment [5] it was 28.4 µM; in experiment [6], 14.2 µM. In addition, the TGI amounted to 15.2 µM in experiment [7]; 23.1 µM in [8]; 36.6 µM in experiment [9]; 29.2 µM in experiment [10]; 29.2 µM in experiment [11]; 27.1 µM in experiment [12]. The TGI amounted to 17.4 µM in experiment [13]; 28.5 µM in [14]; 21 µM in experiment [15]; 31.3 µM in experiment [16]; 24.5 µM in [17]; 33.7 µM in [18]. In experiment [19], the TGI is 30.5 µM.
With `CC1(C)CC(O)C2=C(O1)C(=O)c1ncccc1C2=O` (centres undefined), the TGI is 11.5 µM in [1]; 3.18 µM in experiment [2]; 4.45 µM in experiment [3]; 6.56 µM in experiment [4]; 8.17 µM in experiment [5]; 4.22 µM in experiment [6]. For the same compound, the TGI in experiment [7] was found to be 3.45 µM; in [8], 3.74 µM; in experiment [9] it was 3.24 µM; in [10], 5.4 µM; in experiment [11], 3.72 µM; in experiment [12], 9.57 µM. The TGI in [13] is 12.3 µM; in [14] it was 4.85 µM; in experiment [15] it was 3.1 µM; in experiment [16] it was 9.2 µM; in experiment [17], above 19.8 µM; in experiment [18] it was 3.56 µM. In [19], this compound had a TGI of 5.91 µM.
Take `O=[N+]([O-])c1ccc2nc(Cl)n[n+]([O-])c2c1`: the TGI in experiment [1] was 27.2 µM; in experiment [2], 29.7 µM; in [3], 30.1 µM; in experiment [4] it was above 100 µM; in [5], 51.8 µM; in [6], 27.5 µM. The TGI in experiment [7] is 24.9 µM; in experiment [8], 42.2 µM; in experiment [9], 36.6 µM; in experiment [10] it was 21.9 µM; in experiment [11], 31.3 µM; in experiment [12] it was 28.4 µM. The TGI in [13] was 28.7 µM; in experiment [14] it was 30.7 µM; in experiment [15], 20.7 µM; in experiment [16], above 61.5 µM; in experiment [17], 4.93 µM; in experiment [18], 35.5 µM. Besides, in experiment [19], the TGI was 47.3 µM.
For the compound `Cn1c(NNc2ccccc2)cc(=O)[nH]c1=O`, the TGI in experiment [1] is above 100 µM; in experiment [2], above 100 µM; in experiment [3], above 100 µM; in experiment [4] it was above 100 µM; in experiment [5], 65.3 µM; in experiment [6], above 100 µM. Moreover, the concentration for total growth inhibition (TGI) in experiment [7] was 45.4 µM; in experiment [8], above 100 µM; in experiment [9], above 100 µM; in [10], 61.6 µM; in experiment [11], above 100 µM; in experiment [12] it was above 100 µM. For the same compound, the TGI in [13] is above 100 µM; in experiment [14] it was above 100 µM; in experiment [15] it was 70.1 µM; in experiment [16] it was above 100 µM; in experiment [17], above 100 µM; in [18] it was above 100 µM. The compound also had a total growth inhibition concentration (TGI) in [19] above 100 µM.
`CC(C)(C)c1cc(-c2cc(C(C)(C)C)[nH]n2)n[nH]1`: the TGI in experiment [1], in [2], in experiment [3], in experiment [4], in experiment [6] and in [7] was above 100 µM in each case. Further, the TGI in experiment [8], in [9], in experiment [10], in [11], in experiment [12] and in experiment [13] was above 100 µM each time. Further, the TGI in experiment [14], in experiment [15], in experiment [16], in [17], in experiment [18] and in experiment [19] was above 100 µM throughout.
